Measured values: patent US4656192A, “Tropolone derivatives, processes for the preparation thereof and the use thereof as anti-tumor agents” (Mect Corporation, priority 1984, dated 1987)
In brackets after ≈: the same amount, converted by molar mass.

How the values were obtained:
P388 cancer cells = assay: Tests of life-prolongation effects on cancered mice (P388, i.p.); type: in vivo; details: Mus musculus, P388, ip, i.p. on first and fifth day, P388 in CDF mice, read-out: Life-prolongation effects T/C %
Protocol: 10^6 P388 cancer cells were grafted into groups of CDF mice. Each group consisted of six mice. On the first day and the fifth day, a sample to be tested was administered to the mice intraperitoneally. The life-prolongation effects were shown in terms of the ratio of the number of surviving days of the mice in the treated group to that in the control group (T/C %).

Acute toxicity in mice = details: mouse, in vivo, male mice
Description: The compounds of the present invention have only a low acute toxicity. For example, the acute toxicities of typical compounds, i.e., α,α-bis(2-hydroxy-6-isopropyl-tropon-3-yl)toluene (IIIa) and α,α-bis(2-hydroxy-6-isopropyl-tropon-3-yl)-4-methoxytoluene (IIIb) have LD50 as shown in the following table: […]

KB-cells = assay: KB-cell growth inhibition tests; type: cell-based; details: Homo sapiens, 48 h, MEM-10% calf serum, 5% CO2, 37° C., sample added second day, surviving cells counted fourth day, substantially 50% growth inhibition vs sample-free control, read-out: KB cell growth inhibition ED50
Protocol: KB-cells were placed in an Eagles minimal essential medium (MEM)-10% calf serum medium and cultered in a 5 % carbon dioxide atmosphere at 37° C. in an incubator. The cells thus treated were used in the tests. On the first day, the KB cells were diluted to a concentration of 2×10^4 /ml 3 ml of the resulting suspension was placed in watch glasses having a diameter of 60 mm. On the second day, 100, 30, 10, 3 and 1 μg/ml of each sample to be tested was added thereto and the culture was continued under the same conditions as above. On the fourth day, the surviving cells were taken out of the watch glass by meand of trypsin and the number of the cells was counted. The concentration of the sample required for obtaining substantially 50 % growth inhibition based on the sample-free control (ED50) was determined. The cancer cell growth inhibition effect of the sample was shown by ED50.

CC(C)c1ccc(C(c2ccccc2)c2ccc(C(C)C)cc(=O)c2O)c(O)c(=O)c1 [IIIa, α,α-bis(2-hydroxy-6-isopropyl-tropon-3-yl)toluene]
response vs control in vivo at 1.25 mg/kg (P388 cancer cells; 1.25 mg/kg): 132% | response vs control in vivo at 5 mg/kg (P388 cancer cells): 188% | LD50 (Acute toxicity in mice; ip): 5.5 mg/kg | LD50 (Acute toxicity in mice; iv): 5.8 mg/kg | LD50 (Acute toxicity in mice; po): > 5000 mg/kg | IC50 (KB-cells): < 0.3 µg/mL

COc1ccc(C(c2ccc(C(C)C)cc(=O)c2O)c2ccc(C(C)C)cc(=O)c2O)cc1 [IIIb, α,α-bis(2-hydroxy-6-isopropyl-tropon-3-yl)-4-methoxytoluene]
response vs control in vivo at 0.62 mg/kg (P388 cancer cells; 0.62 mg/kg): 127% | response vs control in vivo at 5 mg/kg (P388 cancer cells): 173% | LD50 (Acute toxicity in mice; ip): 11.2 mg/kg | LD50 (Acute toxicity in mice; iv): 9.1 mg/kg | LD50 (Acute toxicity in mice; po): > 5000 mg/kg | IC50 (KB-cells): < 0.3 µg/mL

Cc1ccc(C(c2ccc(C(C)C)cc(=O)c2O)c2ccc(C(C)C)cc(=O)c2O)cc1 [IIIc, α,α-bis(2-hydroxy-6-isopropyl-tropon-3-yl)-4-methyltoluene]
response vs control in vivo at 2.5 mg/kg (P388 cancer cells): 125% | response vs control in vivo at 10 mg/kg (P388 cancer cells): 163% | IC50 (KB-cells): 1.45 µg/mL (≈ 3.37 µM)

CC(C)c1ccc(C(c2ccc(Cl)cc2)c2ccc(C(C)C)cc(=O)c2O)c(O)c(=O)c1 [IIId, α,α-bis(2-hydroxy-6-isopropyl-tropon-3yl)-4-chlorotoluene]
response vs control in vivo at 2.5 mg/kg (P388 cancer cells): 124% | response vs control in vivo at 10 mg/kg (P388 cancer cells): 144% | IC50 (KB-cells): 2 µg/mL (≈ 4.43 µM)

CC(C)c1ccc(C(c2ccc(N(C)C)cc2)c2ccc(C(C)C)cc(=O)c2O)c(O)c(=O)c1 [IIIe, α,α-bis(2-hydroxy-6-isopropyl-tropon-3-yl)-4-(N,N-dimethylamino)toluene]
response vs control in vivo at 2.5 mg/kg (P388 cancer cells): 141% | IC50 (KB-cells): 0.69 µg/mL (≈ 1.5 µM)

CC(C)c1ccc(C2OCCc3ccccc32)c(O)c(=O)c1 (stereo not drawn) [IIa, 3-(1-isochromanyl)-6-isopropyltropolone]
response vs control in vivo at 100 mg/kg (P388 cancer cells): 126% | IC50 (KB-cells): < 0.3 µg/mL

O=c1ccccc(C2OCCc3ccccc32)c1O (stereo not drawn) [IIb, 3-(1-isochromanyl)tropolone]
response vs control in vivo at 100 mg/kg (P388 cancer cells): 96%

COc1ccc(C(c2cc(C(C)C)ccc(=O)c2O)c2cc(C(C)C)ccc(=O)c2O)cc1 [IVa, α,α-bis(2-hydroxy-5-isopropyltropon-3-yl)-4-methoxytoluene]
response vs control in vivo at 2.5 mg/kg (P388 cancer cells): 137% | response vs control in vivo at 10 mg/kg (P388 cancer cells): 147% | IC50 (KB-cells): 0.3 µg/mL (≈ 0.672 µM)

CCOC(c1ccccc1)c1ccc(C(C)C)cc(=O)c1O (stereo not drawn) [Ia]
response vs control in vivo at 200 mg/kg (P388 cancer cells): 109% | IC50 (KB-cells): < 0.3 µg/mL

CCOC(c1ccc(C)cc1)c1ccc(C(C)C)cc(=O)c1O (stereo not drawn) [Ib, 3-(α-ethoxy-4-methylbenzyl)-6-isopropyltropolone]
response vs control in vivo at 400 mg/kg (P388 cancer cells): 125% | IC50 (KB-cells): 6.2 µg/mL (≈ 19.8 µM)

CCOC(c1ccc(OC)cc1)c1ccc(C(C)C)cc(=O)c1O (stereo not drawn) [Ic, 3-(α-ethoxy-4-methoxybenzyl)-6-isopropyltropolone]
response vs control in vivo at 100 mg/kg (P388 cancer cells): 140% | IC50 (KB-cells): 0.51 µg/mL (≈ 1.55 µM)

CCOC(c1ccc(N(C)C)cc1)c1ccc(C(C)C)cc(=O)c1O (stereo not drawn) [Id, 3-[α-ethoxy-4-(N,N-dimethylamino)benzyl]-6-isopropyltropolone]
response vs control in vivo at 100 mg/kg (P388 cancer cells): 136% | IC50 (KB-cells): 0.59 µg/mL (≈ 1.73 µM)

CC(C)c1ccc(C(c2ccccc2)c2ccccc2)c(O)c(=O)c1 [Ie, 3-benzhydryl-6-isopropyltropolone]
response vs control in vivo at 200 mg/kg (P388 cancer cells): 123% | response vs control in vivo at 400 mg/kg (P388 cancer cells): 132% | IC50 (KB-cells): 1.39 µg/mL (≈ 4.21 µM)

CC(C)c1ccc(Cc2ccccc2)c(O)c(=O)c1 [If, 3-benzyl-6-isopropyltropolone]
response vs control in vivo at 200 mg/kg (P388 cancer cells): 97% | IC50 (KB-cells): 0.56 µg/mL (≈ 2.2 µM)
